Measurements published in patent US11230535B2, “CFTR regulators and methods of use thereof” (THE REGENTS OF THE UNIVERSITY OF CALIFORNIA, priority 2015, dated 2022).
Entries after “also recorded” stand apart in the source; their conditions may differ.

Key:
[1] = tested on: mouse colon; assay: Short-circuit current in freshly harvested mouse colon; settings: freshly isolated mouse colon; read-out: EC50, increase in short-circuit current (Cl− secretion)
Description: Short-circuit current was measured in FRT cells stably expressing wild-type human CFTR cultured on porous filters as described. The basolateral solution contained 130 mM NaCl, 2.7 mM KCl, 1.5 mM KH2PO4, 1 mM CaCl2, 0.5 mM MgCl2, 10 mM glucose, and 10 mM Na-HEPES (pH 7.3, 37° C.). In the apical solution 65 mM NaCl was replaced by Na gluconate, and CaCl2 was increased to 2 mM, and the basolateral membrane was permeabilized with 250 μg/ml amphotericin B. Short-circuit current was measured in freshly harvested adult mouse colon at 37° C. using symmetrical Krebs-bicarbonate buffer.
Short-circuit current measurement. Short-circuit current was measured in FRT cells stably expressing wild-type human CFTR cultured on porous filters as described. The basolateral solution contained 130 mM NaCl, 2.7 mM KCl, 1.5 mM KH2PO4, 1 mM CaCl2, 0.5 mM MgCl2, 10 mM glucose, and 10 mM Na-HEPES (pH 7.3, 37° C.). In the apical solution 65 mM NaCl was replaced by Na gluconate, and CaCl2 was increased to 2 mM, and the basolateral membrane was permeabilized with 250 μg/ml amphotericin B. Short-circuit current was measured in freshly harvested adult mouse colon at 37° C. using symmetrical Krebs-bicarbonate buffer.

[2] = tested on: closed mid-jejunal loops of cystic fibrosis mice; assay: In vivo intestinal fluid absorption in closed mid-jejunal loops of CF mice; parameters: species or system mouse; settings: 30 min
Description: Mice (wildtype or CF) were given access to 5% dextrose water but not solid food for 24 h before experiments. Mice were anesthetized with isoflurane and body temperature was maintained during surgery at 36-38° C. using a heating pad. A small abdominal incision was made to expose the small intestine, and closed mid-jejunal loops (length 2-3 cm) were isolated by sutures. Loops were injected with 100 μL vehicle alone or 100 μg CFTRact-J027 in vehicle. The abdominal incision was closed with sutures, and mice were allowed to recover from anesthesia. Intestinal loops were removed at 90 min and loop length and weight were measured to quantify fluid secretion. Intestinal absorption was measured in CF mice (to prevent secretion) as described above, except that the loops were removed at 0 or 30 min. Absorption was calculated as 1−(loop weight at 0 min−loop weight at 30 min)/loop weight at 0 min.
In vivo intestinal secretion and absorption. Mice (wildtype or CF) were given access to 5% dextrose water but not solid food for 24 h before experiments. […] Intestinal loops were removed at 90 min and loop length and weight were measured to quantify fluid secretion. Intestinal absorption was measured in CF mice (to prevent secretion) as described above, except that the loops were removed at 0 or 30 min. Absorption was calculated as 1−(loop weight at 0 min−loop weight at 30 min)/loop weight at 0 min.

[3] = tested on: BALB/c mice after lacrimal gland excision; assay: Lacrimal gland excision (LGE) mouse model of aqueous-deficient dry eye; type: in vivo
Description: To assess corneal epithelial disruption, 5 μL of lissamine green (LG) dye (1%) was applied to the ocular surface of isofluorane-anesthetized mice. Photographs of the eye were taken using a Nikon Digital camera adapted to an Olympus Zoom Stereo Microscope (Olympus, Center Valley, Pa., USA). Each corneal quadrant was scored on a 3-point scale by one blinded, trained observer, with the extent of staining in each quadrant classified as: 0, no staining; 1, sporadic (involving <25% of the total surface) staining; grade 2, diffuse punctate staining (25-75%); and grade 3, coalesced punctate staining (≥75%). The total grade is reported as the sum of scores from all four quadrants, ranging from 0 to 12.
A lacrimal gland excision (LGE) model of aqueous-deficient dry eye was adapted from a reported method (30). The extraorbital lacrimal gland was exposed on each side of wild-type female BALB/c mice (7-8 weeks of age) by 3-mm linear skin incisions. Lacrimal ducts were cauterized and the entire gland was removed bilaterally, avoiding facial vessels and nerves. Incisions were each closed with a single interrupted 6-0 silk suture. Orbital lacrimal tissue remained functional. Eyes with reduced corneal sensation (<5% of mice studied), as identified from neurotrophic corneal ulcers within 1 day of LGE, were excluded. Mice were randomized to receive either treatment (in both eyes) with CFTRact-K089 (0.1 nmol) or vehicle. Mice were treated three times daily (8 AM, 2 PM and 8 PM) for 2 weeks starting on Day 1 after LGE. Tear secretion and LG staining were performed immediately prior to, and one hour after the initial dose on day 4, 10 and 14 after LGE.
Lissamine green staining. […] Each corneal quadrant was scored on a 3-point scale by one blinded, trained observer, with the extent of staining in each quadrant classified as: 0, no staining; 1, sporadic (involving <25% of the total surface) staining; grade 2, diffuse punctate staining (25-75%); and grade 3, coalesced punctate staining (≥75%). […]

[4] = 0.1 nmol topical three times daily

Compound	EC50 [1] [nM]	intestinal fluid absorption [2]	LG score change ([3]; 0.1 nmol three times daily, by Day 14, 12-point scale)	corneal / ocular surface epithelial disruption after LGE [3, 4]	tear secretion / tear volume after LGE [3, 4]
Nc1ccc([N+](=O)[O-])cc1-c1nc2ccccc2n(Cc2ccccc2)c1=O [CFTRact-J027, 3-(2-amino-5-nitrophenyl)-1-benzylquinoxalin-2(1H)-one]	~300	did not affect intestinal fluid absorption	–	–	–
CCN(CC)c1nc(Nc2ccccc2)nc(OC(C(F)(F)F)C(F)(F)F)n1 [CFTRact-K089, N,N-Diethyl-6-[(1,1,1,3,3,3-hexafluoropropan-2-yl)oxy]-N′-phenyl-1,3,5-triazine-2,4-diamine]	–	–	−0.6±0.6	fully prevented the corneal epithelial disruption; also recorded: prevented ocular surface epithelial disruption at all time points	restored tear secretion to basal levels; also recorded: maintained basal tear volume
